Assay results as given in publication PMC4385514 (Chemical biology & drug design, 2014).
Structures can show the parent of a compound that is named as a salt.

Experiments:
[1] = system: Bloodstream forms of Trypanosoma brucei brucei strain 427; assay: Trypanosome cell culture assay; format: cell-based; details: 48 h, read-out: T brucei cell (EC50, μM)
TbrPDEB1 = molecular target: T1, TbrPDEB1 (Trypanosoma brucei, UniProt Q8WQX9); assay: TbrPDEB1 biochemical assay; details: for inhibition at 10 µM: read-out: TbrPDEB1 (% inh); for fold improvement of TbrPDEB1 activity over 3: relative to compound 3
T1 sequence (Q8WQX9 1-930): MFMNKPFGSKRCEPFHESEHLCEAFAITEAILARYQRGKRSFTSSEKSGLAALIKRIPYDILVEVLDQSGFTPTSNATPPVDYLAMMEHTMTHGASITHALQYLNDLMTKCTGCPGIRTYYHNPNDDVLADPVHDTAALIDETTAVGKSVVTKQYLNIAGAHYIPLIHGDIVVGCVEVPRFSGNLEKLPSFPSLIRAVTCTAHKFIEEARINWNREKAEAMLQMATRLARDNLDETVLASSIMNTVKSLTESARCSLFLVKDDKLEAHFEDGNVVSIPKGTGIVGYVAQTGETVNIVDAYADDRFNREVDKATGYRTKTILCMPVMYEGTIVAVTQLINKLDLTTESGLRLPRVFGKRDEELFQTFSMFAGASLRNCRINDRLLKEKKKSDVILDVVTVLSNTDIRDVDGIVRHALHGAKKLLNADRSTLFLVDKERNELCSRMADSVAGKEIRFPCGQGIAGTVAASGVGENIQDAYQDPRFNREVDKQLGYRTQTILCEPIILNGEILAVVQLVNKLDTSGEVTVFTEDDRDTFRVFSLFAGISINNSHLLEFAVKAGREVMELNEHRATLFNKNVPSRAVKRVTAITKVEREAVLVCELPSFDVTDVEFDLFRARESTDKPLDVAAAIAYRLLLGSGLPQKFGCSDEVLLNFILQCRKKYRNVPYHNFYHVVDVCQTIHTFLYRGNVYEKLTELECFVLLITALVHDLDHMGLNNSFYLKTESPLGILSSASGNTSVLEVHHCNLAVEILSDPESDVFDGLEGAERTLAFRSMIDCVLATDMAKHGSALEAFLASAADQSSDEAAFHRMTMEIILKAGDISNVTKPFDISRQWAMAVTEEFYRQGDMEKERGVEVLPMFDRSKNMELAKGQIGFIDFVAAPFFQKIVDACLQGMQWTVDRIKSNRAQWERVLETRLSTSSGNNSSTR

| SMILES | EC50 [1] [µM] | inhibition at 10 µM (TbrPDEB1) [%] | fold improvement of TbrPDEB1 activity over 3 (TbrPDEB1) |
| --- | --- | --- | --- |
| COc1cccc(Nc2c(C(N)=O)cnc3c(C)cc(S(=O)(=O)c4cccc(C(=O)N(C)C)c4)cc23)c1 [Compound 3, GSK-256066, reference compound] | 7.8 ± 2.5 | 51 ± 3.9 |  |
| COc1cccc(Nc2c(C(N)=O)cnc3c(C)cc(-c4cc(C(=O)O)cc(C(=O)O)c4)cc23)c1 [Compound 18a, 5-(3-carbamoyl-4-((3-methoxyphenyl)amino)-8-methylquinolin-6-yl)isophthalic acid] |  | 10 ± 5.3 |  |
| COc1cccc(Nc2c(C(N)=O)cnc3c(C)cc(Sc4ccccc4)cc23)c1 [Compound 9b, 4-((3-methoxyphenyl)amino)-8-methyl-6-(phenylthio)quinoline-3-carboxamide] |  | 10 |  |
| COC(=O)c1cccc(Nc2cc(C)c3ncc(C(N)=O)c(Nc4cccc(OC)c4)c3c2)c1 [Compound 13, methyl 3-(3-carbamoyl-4-(3-methoxyphenylamino)-8-methylquinolin-6-ylamino)benzoate] |  | 84 ± 7.7 |  |
| COc1cccc(Nc2c(C(=O)N(C)C)cnc3c(C)cc(-c4ccc5cnn(C)c5c4)cc23)c1 [Compound 27b, 4-((3-methoxyphenyl)amino)-N,N,8-trimethyl-6-(1-methyl-1H-indazol-6-yl)quinoline-3-carboxamide, formic acid salt] |  | 22 ± 3.8 |  |
| COC(=O)c1cccc(Sc2cc(C)c3ncc(C(N)=O)c(Nc4cccc(OC)c4)c3c2)c1 [Compound 9a, methyl 3-(3-carbamoyl-4-(3-methoxyphenylamino)-8-methylquinolin-6-ylthio)benzoate] |  | 12 ± 6.1 |  |
| COC(=O)c1cccc(-c2cc(C)c3ncc(C(N)=O)c(-c4cccc(C(=O)OC)c4)c3c2)c1 [Compound 21a, dimethyl 3,3′-(3-carbamoyl-8-methylquinoline-4,6-diyl)dibenzoate] |  | 41 ± 5.8 |  |
| CNC(=O)c1cccc(S(=O)(=O)c2cc(C)c3ncc(C(N)=O)c(Nc4cccc(OC)c4)c3c2)c1 [Compound 12b, 4-(3-methoxyphenylamino)-8-methyl-6-(3-(methylcarbamoyl)phenylsulfonyl)quinoline-3-carboxamide] |  | 66 ± 6.1 |  |
| COc1cccc(Nc2c(C(N)=O)cnc3c(C)cc(S(=O)(=O)c4cccc(C(N)=O)c4)cc23)c1 [Compound 12a, 6-(3-carbamoylphenylsulfonyl)-4-(3-methoxyphenylamino)-8-methylquinoline-3-carboxamide] |  | 64 ± 7 |  |
| COC(=O)c1cc(C(=O)O)cc(-c2cc(C)c3ncc(C(N)=O)c(Nc4cccc(OC)c4)c3c2)c1 [Compound 18b, 3-(3-carbamoyl-4-((3-methoxyphenyl)amino)-8-methylquinolin-6-yl)-5-(methoxycarbonyl)benzoic acid] |  | 31 ± 14 |  |
| CNC(=O)c1cnc2c(C)cc(-c3ccc4cnn(C)c4c3)cc2c1Nc1cccc(OC)c1 [Compound 27a, 4-((3-methoxyphenyl)amino)-N,8-dimethyl-6-(1-methyl-1H-indazol-6-yl)quinoline-3-carboxamide] |  | 34 ± 11 |  |
| Cc1cc(-c2cccc(-c3ncco3)c2)cc2c(NC3CCCC3)c(C(N)=O)cnc12 [Compound 28, 4-(cyclopentylamino)-8-methyl-6-(3-(oxazol-2-yl)phenyl)quinoline-3-carboxamide] |  | 76 ± 2.2 |  |
| COc1cccc(Nc2c(C(N)=O)cnc3c(C)cc(S(=O)(=O)c4ccccc4)cc23)c1 [Compound 10b, 4-((3-methoxyphenyl)amino)-8-methyl-6-(phenylsulfonyl)quinoline-3-carboxamide] |  | 21 ± 16 |  |
| COC(=O)c1cccc(-c2cc(C)c3ncc(C(N)=O)cc3c2)c1 [Compound 21b, methyl 3-(3-carbamoyl-8-methylquinolin-6-yl)benzoate] |  | 0 |  |
| COC(=O)c1cccc(S(=O)(=O)c2cc(C)c3ncc(C(N)=O)c(Nc4cccc(OC)c4)c3c2)c1 [Compound 10a, methyl 3-(3-carbamoyl-4-(3-methoxyphenylamino)-8-methylquinolin-6-ylsulfonyl)benzoate] | 7.3 ± 0.97 | 70 ± 7.9 | approximately 8 fold |
| COc1cccc(Nc2c(C(N)=O)cnc3c(C)cc(S(=O)(=O)c4cccc(C(=O)O)c4)cc23)c1 [Compound 11, 3-(3-carbamoyl-4-(3-methoxyphenylamino)-8-methylquinolin-6-ylsulfonyl)benzoic acid] |  | 82 ± 10 | approximately 8 fold |
